According to patent US11279733B2, “Peptide antibiotics” (priority 2017, dated 2022):
Values after ≈ are worked out from the molar mass of the structure shown. Like-named read-outs stand apart in the source and are kept apart here. Positions of bridges follow the written chain, without caps; N, C: chain ends. Non-standard residues stand in square brackets, D forms with d. Residues, ends and D or L forms follow the SMILES beside them. *: point of attachment. Decanoyl(3R-OH) = CCCCCCC[C@@H](O)CC(=O)*; dDab = NCC[C@@H](N)C(=O)O; Dab = NCC[C@H](N)C(=O)O; Dap = NC[C@H](N)C(=O)O

Experiments:
in vitro = conditions: human
Outline: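 HK2 cells were seeded at 2000 per well in DMEM/F12 with 10% FBS and left to attach for 24 h at 37 °C, 5% CO2. They were then exposed for 24 h to 3-fold peptide dilutions starting from 600 μM solutions in quadruplicate. LDH release was read at 450 nm, and CC50 was fitted from dose-response curves.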

K. pneumoniae ATCC 13883 = system: K. pneumoniae ATCC 13883
Outline: (§1)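 Mid-log cultures grown in Mueller Hinton broth at 37° C were tested by 2-fold broth microdilution at 5×10^5 CFU/mL final. Compounds were dissolved in water and tested over a final range of 32 to 0.015 μg/mL.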

[1] = system: P. aeruginosa GN_043, PmxR
Outline: as §1

[2] = system: K. pneumoniae ATCC BAA-2146, NDM-1 pos
Outline: as §1

P. aeruginosa ATCC 27853 = system: P. aeruginosa ATCC 27853
Outline: as §1

E. coli ATCC 25922 = system: E. coli ATCC 25922
Outline: as §1

A. baumannii ATCC 19606 = system: A. baumannii ATCC 19606
Outline: as §1

[3] = system: P. aeruginosa GN_105, PmxR
Outline: as §1

[4] = system: S. aureus ATCC 25923, MSSA
Outline: as §1

A. baumannii GN_093 PmxR = system: A. baumannii GN_093 PmxR
Outline: as §1

[5] = system: K. pneumoniae GN_106, PmxR
Outline: as §1

[6] = system: K. pneumoniae GN_102 PmxR
Outline: as §1

[7] = system: K. pneumoniae ATCC 700603, MDR
Outline: as §1

Row | Structure (SMILES) | CC50 at 24 h (in vitro) | MIC K. pneumoniae ATCC 13883 (K. pneumoniae ATCC 13883; ATCC 13883) | MIC K. pneumoniae ATCC BAA-2146, NDM-1 pos ([2]; ATCC BAA-2146) | MIC P. aeruginosa ATCC 27853 (P. aeruginosa ATCC 27853; ATCC 27853) | MIC E. coli ATCC 25922 (E. coli ATCC 25922; ATCC 25922) | MIC A. baumannii ATCC 19606 (A. baumannii ATCC 19606; ATCC 19606) | MIC P. aeruginosa GN_105, PmxR ([3]; GN 105, PmxR) | MIC S. aureus ATCC 25923, MSSA ([4]; ATCC 25923) | MIC A. baumannii GN_093 PmxR (A. baumannii GN_093 PmxR; GN 093 PmxR) | MIC K. pneumoniae GN_106, PmxR ([5]; GN 106, PmxR) | MIC K. pneumoniae GN_102 PmxR ([6]; GN 102 PmxR) | MIC K. pneumoniae ATCC 700603, MDR ([7]; ATCC 700603) | MIC P. aeruginosa GN_043, PmxR ([1]; P. aeruginosa GN_043, PmxR) | other results
1 | CCCCCCC[C@@H](O)CC(=O)N[C@H](CCN)C(=O)N[C@H]1CCNC(=O)[C@H](CCC(=O)O)NC(=O)[C@H](CCN)NC(=O)[C@H](CCN)NC(=O)[C@H](CC(C)C)NC(=O)[C@@H](Cc2ccccc2)NC(=O)[C@H](CCN)NC1=O [compound 6512, 3(R)OH-nC9CO-D-Dab-cyc[L-Dab-L-Dab-D-Phe-L-Leu-L-Dab-L-Dab-L-Glu]] ({Decanoyl(3R-OH)}-[dDab][Dab][Dab][dF]L[Dab][Dab]E; lactam 2-C) | > 300 µM | >64 µg/mL | >64 µg/mL | 8 µg/mL (≈ 7.54 µM) | >64 µg/mL | >64 µg/mL | >32 µg/mL | >32 µg/mL | >32 µg/mL | >32 µg/mL | >32 µg/mL | 64 µg/mL (≈ 60.4 µM) | – | MIC P. aeruginosa GN_043, PmxR ([1]; polymyxin-resistant): >32 µg/mL
2 | CCCCCCC[C@@H](O)CC(=O)N[C@H](CCN)C(=O)N[C@H]1CCNC(=O)[C@H]([C@@H](C)O)NC(=O)[C@H](CN)NC(=O)[C@H](CCN)NC(=O)[C@H](CC(C)C)NC(=O)[C@@H](Cc2ccccc2)NC(=O)[C@H](CCN)NC1=O [compound 5386, 3(R)OH-nC9CO-D-Dab-cyc[L-Dab-L-Dab-D-Phe-L-Leu-L-Dab-L-Dap-L-Thr]] ({Decanoyl(3R-OH)}-[dDab][Dab][Dab][dF]L[Dab][Dap]T; lactam 2-C) | 154 µM | – | – | – | – | – | – | – | – | – | – | – | 1 µg/mL (≈ 0.982 µM) | MIC K. pneumoniae ATCC 13883 (K. pneumoniae ATCC 13883; K. pneumoniae ATCC 13883): 16 µg/mL (≈ 15.7 µM); MIC K. pneumoniae ATCC BAA-2146, NDM-1 pos ([2]; K. pneumoniae ATCC BAA-2146, NDM-1 pos): 4 µg/mL (≈ 3.93 µM); MIC P. aeruginosa ATCC 27853 (P. aeruginosa ATCC 27853; P. aeruginosa ATCC 27853): 4 µg/mL (≈ 3.93 µM); MIC E. coli ATCC 25922 (E. coli ATCC 25922; E. coli ATCC 25922): 2 µg/mL (≈ 1.96 µM); MIC A. baumannii ATCC 19606 (A. baumannii ATCC 19606; A. baumannii ATCC 19606): >32 µg/mL; MIC P. aeruginosa GN_105, PmxR ([3]; P. aeruginosa GN_105, PmxR): 4 µg/mL (≈ 3.93 µM); MIC S. aureus ATCC 25923, MSSA ([4]; S. aureus ATCC 25923, MSSA): >32 µg/mL; MIC A. baumannii GN_093 PmxR (A. baumannii GN_093 PmxR; A. baumannii GN_093 PmxR): >32 µg/mL; MIC K. pneumoniae GN_106, PmxR ([5]; K. pneumoniae GN_106, PmxR): >32 µg/mL; MIC K. pneumoniae GN_102 PmxR ([6]; K. pneumoniae GN_102 PmxR): 32 µg/mL (≈ 31.4 µM); MIC K. pneumoniae ATCC 700603, MDR ([7]; K. pneumoniae ATCC 700603, MDR): 2 µg/mL (≈ 1.96 µM)
3 | CCCCCCC[C@@H](O)CC(=O)N[C@H](CCN)C(=O)N[C@H]1CCNC(=O)[C@H]([C@@H](C)O)NC(=O)[C@H](CCN)NC(=O)[C@H](CCNC(=O)[C@@H](N)CCCNC(=N)N)NC(=O)[C@H](CC(C)C)NC(=O)[C@@H](Cc2ccccc2)NC(=O)[C@H](CCN)NC1=O [compound 6656, 3(R)OH-nC9CO-D-Dab-cyc[L-Dab-L-Dab-D-Phe-L-Leu-L-Dab(L-Arg)-L-Dab-L-Thr]] ({Decanoyl(3R-OH)}-[dDab][Dab][Dab][dF]L[Dab](Arg)[Dab]T; lactam 2-C) | > 300 µM | >32 µg/mL | >32 µg/mL | 2 µg/mL (≈ 1.68 µM) | 2 µg/mL (≈ 1.68 µM) | 16 µg/mL (≈ 13.5 µM) | 16 µg/mL (≈ 13.5 µM) | >32 µg/mL | >32 µg/mL | >32 µg/mL | >32 µg/mL | 4 µg/mL (≈ 3.37 µM) | 8 µg/mL (≈ 6.73 µM) | –
4 | CCCCCCC[C@@H](O)CC(=O)N[C@H](CCN)C(=O)N[C@H]1CCNC(=O)[C@H](CC(C)C)NC(=O)[C@H](CCN)NC(=O)[C@H](C)NC(=O)[C@H](CC(C)C)NC(=O)[C@@H](Cc2ccccc2)NC(=O)[C@H](CCN)NC1=O [compound 4945, 3(R)OH-nC9CO-D-Dab-cyc[L-Dab-L-Dab-D-Phe-L-Leu-L-Ala-L-Dab-L-Leu]] ({Decanoyl(3R-OH)}-[dDab][Dab][Dab][dF]LA[Dab]L; lactam 2-C) | 181 µM | – | – | – | – | – | – | – | – | – | – | – | – | MIC, K. pneumoniae ATCC 13883 (K. pneumoniae ATCC 13883; ATCC 13883): 16 µg/mL (≈ 15.8 µM); MIC, P. aeruginosa FADDI-PA070, PmxR ([1]; Table 5, polymyxin-resistant): 4 µg/mL (≈ 3.94 µM); MIC, K. pneumoniae ATCC BAA-2146, NDM-1 pos ([2]; ATCC BAA-2146): 8 µg/mL (≈ 7.88 µM); MIC, P. aeruginosa ATCC 27853 (P. aeruginosa ATCC 27853; ATCC 27853): 4 µg/mL (≈ 3.94 µM); MIC, E. coli ATCC 25922 (E. coli ATCC 25922; ATCC 25922): 16 µg/mL (≈ 15.8 µM); MIC, A. baumannii ATCC 19606 (A. baumannii ATCC 19606; ATCC 19606): 16 µg/mL (≈ 15.8 µM); MIC, P. aeruginosa PA9704, PmxR ([3]; GN 105, PmxR): 8 µg/mL (≈ 7.88 µM); MIC, S. Aureus ATCC 25923, MSSA ([4]; ATCC 25923): 32 µg/mL (≈ 31.5 µM); MIC, A. baumannii Cl Ptyela 10073 4512:2, PmxR (A. baumannii GN_093 PmxR; GN 093 PmxR): 32 µg/mL (≈ 31.5 µM); MIC, K. pneumoniae Cl 138-16347-20362, PmxR ([5]; GN 106, PmxR): 16 µg/mL (≈ 15.8 µM); MIC, K. pneumoniae Cl Koprana 10065 0661:1, PmxR ([6]; GN 102 PmxR): 4 µg/mL (≈ 3.94 µM); MIC, K. pneumoniae ATCC 700603, MDR ([7]; ATCC 700603): 8 µg/mL (≈ 7.88 µM)
